Assay results from BigSolDB 2.1.

CCCNS(=O)(=O)Nc1ncnc(OCCOc2ncc(Br)cn2)c1-c1ccc(Br)cc1
solubility (mole fraction)
Settings | 273.15 K | 278.15 K | 283.15 K | 288.15 K | 293.15 K | 298.15 K | 303.15 K | 308.15 K | 313.15 K
in ethanol | 6.4e-05 | 8.8e-05 | 0.000117 | 0.000151 | 0.000188 | 0.000234 | 0.000293 | 0.000365 | 0.000458
in ethyl acetate | 0.00338 | 0.00406 | 0.00483 | 0.00577 | 0.00681 | 0.00793 | 0.00921 | 0.0107 | 0.0122
in isopropanol | 4.7e-05 | 5.9e-05 | 7.5e-05 | 9.2e-05 | 0.000114 | 0.000141 | 0.000172 | 0.000206 | 0.000246
in methanol | 7.6e-05 | 0.000109 | 0.000145 | 0.000186 | 0.000232 | 0.000284 | 0.000358 | 0.000463 | 0.000602
